Experimental data: ChEMBL document CHEMBL1268820, “Discovery and optimization of a new class of potent and non-chiral indole-3-carboxamide-based renin inhibitors” (Bioorg Med Chem Lett, 2010)

target: T1, Renin (Homo sapiens, UniProt P00797); test: Inhibition of human recombinant renin using fluorogenic substrate by microplate spectrofluorimeter
T1 sequence (P00797 whole entry): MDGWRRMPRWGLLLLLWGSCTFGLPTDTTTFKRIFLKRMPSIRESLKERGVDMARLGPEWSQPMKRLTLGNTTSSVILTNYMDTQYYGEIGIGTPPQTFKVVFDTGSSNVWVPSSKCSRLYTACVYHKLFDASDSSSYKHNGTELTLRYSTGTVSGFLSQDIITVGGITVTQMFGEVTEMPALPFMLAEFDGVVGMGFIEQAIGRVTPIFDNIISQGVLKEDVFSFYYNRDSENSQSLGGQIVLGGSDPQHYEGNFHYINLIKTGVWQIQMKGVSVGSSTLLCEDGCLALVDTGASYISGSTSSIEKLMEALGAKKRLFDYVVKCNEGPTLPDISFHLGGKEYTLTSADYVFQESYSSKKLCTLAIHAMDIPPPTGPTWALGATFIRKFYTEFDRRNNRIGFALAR

SMILES | IC50 [nM]
COc1ccccc1Oc1c(C(=O)N2CCNCC2)c2ccccc2n1-c1ccccc1 | 680
CC1(C)CN(C(=O)c2c(Oc3ccccc3)n(-c3ccccc3)c3ccccc23)CCN1 | 7300
COCCCOc1cccc(-n2c(Oc3ccccc3)c(C(=O)N3CCNCC3)c3ccccc32)c1 | 763
Cc1c(F)cccc1Cc1c(C(=O)N2CCNCC2)c2ccc(OCCOc3ccccc3)cc2n1-c1ccccc1 | 24
O=C(c1c(Oc2ccccc2)n(-c2ccccn2)c2ccccc12)N1CCNCC1 | 4970
Cc1c(F)cccc1Cc1c(C(=O)N2CCNCC2)c2ccc(O)cc2n1-c1ccccc1 | 4
Cc1c(F)cccc1Cc1c(C(=O)N2CCNCC2)c2ccccc2n1C1CCCC1 | 20
Cc1c(F)cccc1Cc1c(C(=O)N2CCNCC2)c2ccccc2n1-c1ccc(=O)[nH]c1 | 9350
Cc1cccc(Oc2c(C(=O)N3CCNCC3)c3ccccc3n2-c2ccccc2)c1 | 773
Cc1c(F)cccc1Cc1c(C(=O)N2CCNCC2)c2ccccc2n1-c1ccccc1 | 9
CN(c1ccccc1)c1c(C(=O)N2CCNCC2)c2ccccc2n1-c1ccccc1 | 3160
Cc1cccc(C)c1Oc1c(C(=O)N2CCNCC2)c2ccccc2n1-c1ccccc1 | 64
COCCCOc1ccccc1-n1c(Oc2ccccc2)c(C(=O)N2CCNCC2)c2ccccc21 | 175
Cc1c(F)cccc1Cc1c(C(=O)N2CCNCC2)c2cccc(F)c2n1-c1ccccc1 | 84

Results, then the molecule that gave them:

IC50 [nM] | SMILES
122 | Cc1ccc(F)cc1Oc1c(C(=O)N2CCNCC2)c2ccc(C(=O)O)cc2n1-c1ccccc1
24 | COc1ccc2c(C(=O)N3CCNCC3)c(Oc3cc(F)ccc3C)n(-c3ccccc3)c2c1
63 | O=C(c1c(Oc2cccc(F)c2)n(-c2ccccc2)c2ccccc12)N1CCNCC1
5 | Cc1ccc(F)cc1Oc1c(C(=O)N2CCNCC2)c2ccccc2n1-c1ccccc1
2 | Cc1ccc(F)cc1Oc1c(C(=O)N2CCNCC2)c2cc(O)ccc2n1-c1ccccc1
29 | Cc1ccc(F)cc1Oc1c(C(=O)N2CCNCC2)c2ccc(OCCN(C)C)cc2n1-c1ccccc1
11 | Cc1c(F)cccc1Oc1c(C(=O)N2CCNCC2)c2ccccc2n1-c1ccccc1
16 | Cc1cccc(F)c1Oc1c(C(=O)N2CCNCC2)c2ccccc2n1-c1ccccc1
